The values below come from publication PMC8667918, “Synthesis and biological evaluation of halogenated phenoxychalcones and their corresponding pyrazolines as cytotoxic agents in human breast cancer” (Journal of Enzyme Inhibition and Medicinal Chemistry, 2021).

The test system of one series is MCF-7. As to conditions: reported chalcones of Figure 1; cited from earlier work.
The subject of a further series is leukemia. On the set-up: method as in PMID 31927336, PMID 22503741. As to conditions: reported chalcone of Figure 1; cited from earlier work.
A short description of series [1]: MTT assay, cytotoxicity against normal breast cell line MCF-10a. As to conditions: human, MCF-10a normal breast cells. The protocol: (§1) Human breast cancer cell line MCF-7 and normal breast cell line MCF-10a were obtained from American type culture collection, MCF-7 cells were cultured using Dulbecco’s Modified Eagle Medium DMEM (Invitrogen/Life Technologies) supplemented with 10% FBS (Hyclone), 10 µg/ml of insulin (Sigma), and 1% penicillin-streptomycin. MCF-10a cell line was cultured using DMEM medium supplemented with 10% FBS, 1% sodium pyruvate, 1% MEM NEAA, 20 ng/ml human epidermal growth factor (HEGF), 10 μg/ml insulin and 0.05 mM hydrocortisone. The cells were incubated at 37 °C in a humidified atmosphere of 5% CO2.
(§2) The anticancer effect of phenoxychalcones and N-acetylpyrazolines on the viability of both tumour and normal cells was evaluated using МТТ assay as a rapid colorimetric assay. It is based on the ability of mitochondrial dehydrogenases of viable cells to reduce yellow tetrazolium salt MTT to blue formazan in quantities proportional to the number of living cells. The cells were incubated with the medium alone or with the tested compounds at concentrations of 100 µM, 25 µM, 6.25 µM, 1.56 µM and 0.39 µM for 48 h. […] Then, 20 μL MTT solution was added to each well and mixed. After 4 h, the supernatants were removed and 100 μL DMSO was added to each well to dissolve the precipitate. The viability of cells was estimated by measuring the absorbance at 570 nm using a Bioline ELIZA plate reader. The cell viability percentage was calculated based on the absorbance ratio between cell culture treated with the compounds and the untreated control multiplied by 100. Selectivity index (SI) was calculated as the ratio of cytotoxicity (IC50) on normal cells (MCF-10a) to cancer cells (MCF-7).
Background: Formazan colour is commonly taken as a measure of viable cells.

Series [2] relates to MCF-7 breast cancer cell line. In words: MTT assay, cytotoxicity against breast cancer cell line MCF-7. Particulars: for IC50: Homo sapiens, MCF7, 48 h, read-out: In vitro cytotoxicity IC50 MCF-7; for Selectivity index: ratio of IC50 on normal cells (MCF-10a) to cancer cells (MCF-7). On the procedure:
as §1, §2

A further series concerns C6 and Hela cell lines. Set-up: method as in PMID 31927336, PMID 22503741. Particulars: reported chalcone of Figure 1; cited from earlier work.

Regarding `COc1ccc(C(=O)/C=C/c2ccc(Cl)cc2)c(Oc2cc(OC)c(OC)c(OC)c2)c1` [III], the IC50 with MCF-7 is 4.39 ± 0.26 µM.

As for `O=C(/C=C/c1ccc(Br)cc1)c1c(O)cccc1OCc1ccccc1` [IV], the activity against leukemia entry in the series on leukemia is recorded as “Effective against leukemia”.

As to `O=C(C=Cc1ccc(Oc2ccc(Cl)cc2)cc1)c1ccc(Br)cc1` [Compound 2e, 1–(4-Bromophenyl)-3–(4-(4-chlorophenoxy)phenyl)prop-2-en-1-one], the melting point was in the range of 143 to 145 °C. 22.1 ± 1.08 µM corresponded to half-maximal inhibition in series [1] (IC50 at 48 h). In series [2], the half-maximal inhibitory concentration (IC50) is 44.2 ± 2.16 µM and the Selectivity index is on record as 0.50.

Take `Cc1ccc(C(=O)/C=C/c2cccc(Cl)c2Oc2c([N+](=O)[O-])cc(C(F)(F)F)cc2[N+](=O)[O-])cc1` [II]: the IC50 in the series with MCF-7 was 0.03 ± 0.002 µM.

`O=C(C=Cc1ccc(Oc2ccc(Br)cc2)cc1)c1ccc(Br)cc1` [Compound 2b, 3–(4-(4-Bromophenoxy)phenyl)-1–(4-bromophenyl)prop-2-en-1-one] came in with a melting point of 164 to 166 °C. The compound also had an IC50 at 48 h in series [1] of 25.3 ± 1.17 µM. In series [2], the IC50 was found to be 13.3 ± 0.53 µM and the Selectivity index is recorded as 1.91.

The compound `CC(=O)N1N=C(c2ccc(C)cc2)CC1c1ccc(Oc2ccc(Cl)cc2)cc1` (stereo not drawn) [Compound 3f, 1–(5-(4–(4-Chlorophenoxy)phenyl)-3-(p-tolyl)-4,5-dihydro-1H-pyrazol-1-yl) ethanone] came in with a melting point of 118 to 120 °C. This compound also came in with an IC50 at 48 h in series [1] of 12.2 ± 0.79 µM. Moreover, in series [2], the 50% inhibitory concentration (IC50) was 4.77 ± 0.13 µM and the Selectivity index was determined as 2.55.

For the compound `COc1ccc(/C=C/C(=O)c2ccc(OC)cc2Oc2cc(OC)c(OC)c(OC)c2)cc1` [I], the IC50 in the series on MCF-7 was 3.44 ± 0.19 µM.

On to `CC(=O)N1N=C(c2ccc(Br)cc2)CC1c1ccc(Oc2ccc(Br)cc2)cc1` (stereo not drawn) [Compound 3b, 1–(5-(4–(4-Bromophenoxy)phenyl)-3–(4-bromophenyl)-4,5-dihydro-1H-pyrazol-1-yl) ethanone], for which the melting point fell in the range of 138 to 140 °C. Further, half-maximal inhibition in series [1] (IC50 at 48 h) required 11.5 ± 0.47 µM. In series [2], the IC50 came to 17.2 ± 0.62 µM and the Selectivity index turned out to be 0.67.

Compound `CC(=O)N1N=C(c2ccc(Br)cc2)CC1c1ccc(Oc2ccc(Cl)cc2)cc1` (stereo not drawn) [Compound 3e, 1–(3-(4-Bromophenyl)-5–(4-(4-chlorophenoxy)phenyl)-4,5-dihydro-1H-pyrazol-1-yl) ethanone] came in with a melting point of 117 to 119 °C. For the same compound, in series [1], it took 10.1 ± 0.62 µM to reach half-maximal inhibition (IC50 at 48 h). Also, in series [2], the IC50 turned out to be 5.02 ± 0.22 µM and the Selectivity index stood at 2.02.

Turning to `O=C(/C=C/c1cc(Br)ccc1O)c1ccc(Br)cc1` [VIII], the IC50 in the series with MCF-7 is 3.82 ± 0.022 µM.

In turn, `CC(=O)N1N=C(c2ccc(C)cc2)CC1c1ccc(Oc2ccc(Br)cc2)cc1` (stereo not drawn) [Compound 3c, 1–(5-(4–(4-Bromophenoxy)phenyl)-3-(p-tolyl)-4,5-dihydro-1H-pyrazol-1-yl)ethanone] returned a melting point of 141 to 143 °C. This compound also registered an IC50 at 48 h in series [1] of 19.5 ± 0.69 µM. Moreover, in series [2], the IC50 stood at 7.42 ± 0.28 µM and the Selectivity index is on record as 2.63.

Regarding `O=C(C=Cc1ccc(Oc2ccc(Cl)cc2)cc1)c1ccc(Cl)cc1` [Compound 2d, 3–(4-(4-Chlorophenoxy)phenyl)-1–(4-chlorophenyl)prop-2-en-1-one], the melting point lay within 120 to 122 °C. The IC50 at 48 h in series [1] turned out to be 33.1 ± 1.42 µM. Moreover, in series [2], the IC50 worked out at 19.9 ± 0.66 µM and the Selectivity index is 1.67.

`CCn1cc(/C=C/C(=O)c2ccc(Br)cc2)c(-c2ccc(OC)cc2)n1` [IX]: the IC50 with MCF-7 was 18.7 µM.

Compound `Cc1ccc(C(=O)C=Cc2ccc(Oc3ccc(Cl)cc3)cc2)cc1` [Compound 2f, 3–(4-(4-Chlorophenoxy)phenyl)-1-(p-tolyl)prop-2-en-1-one] yielded a melting point of 136 to 138 °C. In series [1], the IC50 at 48 h was 20.6 ± 0.37 µM. In addition, in series [2], the IC50 turned out to be 1.87 ± 0.02 µM and the Selectivity index worked out at 11.03. Also, in series [2] (MCF-7 IC50 compared with chalcone 2e), the “fold more active than 2e” value is 23.6 fold. In addition, in series [2] (MCF-7 IC50 compared with chalcone 2d), the “fold more active than 2d” value came out at 10.6 fold.

The compound `CC(=O)N1N=C(c2ccc(Cl)cc2)CC1c1ccc(Oc2ccc(Br)cc2)cc1` (stereo not drawn) [Compound 3a, 1–(5-(4–(4-Bromophenoxy)phenyl)-3–(4-chlorophenyl)-4,5-dihydro-1H-pyrazol-1-yl) ethanone] registered a melting point of 142 to 144 °C. The same compound came in with an IC50 at 48 h in series [1] of 55.8 ± 1.92 µM. In series [2], the IC50 came out at 10.6 ± 0.39 µM and the Selectivity index is listed as 5.29.

Turning to `Nc1ccc(C(=O)/C=C/c2cccc(Cl)c2)cc1` [VII], in the series with MCF-7, the half-maximal inhibitory concentration (IC50) is 34.2 ± 6.4 µM.

As for `O=C(/C=C/c1ccc(Oc2ccc(Cl)cc2)cc1)c1ccc(N2CCOCC2)cc1` [V], the “activity against C6 and Hela cell lines” value with C6 and Hela cell lines was “Effective against C6 and Hela cell lines”.

In turn, `O=C(C=Cc1ccc(Oc2ccc(Br)cc2)cc1)c1ccc(Cl)cc1` [Compound 2a, 3–(4-(4-Bromophenoxy)phenyl)-1–(4-chlorophenyl)prop-2-en-1-one] showed a melting point of 150 to 152 °C. In series [1], this compound gave an IC50 at 48 h of 33.4 ± 1.34 µM. In series [2], the concentration for half-maximal inhibition (IC50) was found to be 8.51 ± 0.16 µM and the Selectivity index turned out to be 3.92.

In turn, `CC(=O)N1N=C(c2ccc(Cl)cc2)CC1c1ccc(Oc2ccc(Cl)cc2)cc1` (stereo not drawn) [Compound 3d, 1–(5-(4–(4-Chlorophenoxy)phenyl)-3–(4-chlorophenyl)-4,5-dihydro-1H-pyrazol-1-yl) ethanone] had a melting point of 116 to 118 °C. For the same compound, in series [1], the midpoint of inhibition, the IC50 at 48 h, lay at 45.7 ± 1.36 µM. In addition, in series [2], the IC50 amounted to 8.51 ± 0.27 µM and the Selectivity index amounted to 5.37.

As usually defined, the IC50 is the concentration needed to halve the response being measured. In general, melting point refers to the temperature of the solid-liquid transition.
